Values after ≈ are worked out from the molar mass of the structure shown. Counter-ions that a name gives are not always drawn.
Columns and labels:
Acinetobacter baumannii [1] = conditions: ASSAY_TEST Inhibition of Bacterial Growth; detection method Absorption (OD600); MEDIA CAMHB; plate type 384well; NBS; CORNING #3640; time 18 hr
Description: (§1) Antibacterial activity against Acinetobacter baumannii ATCC 19606 (CO-ADD:GN_034); MIC in CAMBH media using NBS plates, by OD600

Klebsiella pneumoniae [2] = conditions: ASSAY_TEST Inhibition of Bacterial Growth; detection method Absorption (OD600); MEDIA CAMHB; plate type 384well; NBS; CORNING #3640; time 18 hr
Description: (§2) Antibacterial activity against Klebsiella pneumoniae MDR ATCC 70063 (CO-ADD:GN_003); MIC in CAMBH media using NBS plates, by OD(600)

HEK293 = assay: cells; type: functional, Homo sapiens, ATCC CRL1573
Pseudomonas aeruginosa [3] = conditions: ASSAY_TEST Inhibition of Bacterial Growth; detection method Absorption (OD600); MEDIA CAMHB; plate type 384well; NBS; CORNING #3640; time 18 hr
Description: (§3) Antibacterial activity against Pseudomonas aeruginosa ATCC 27853 (CO-ADD:GN_042); MIC in CAMBH media using NBS plates, by OD(600)

Candida albicans [4] = conditions: ASSAY_TEST Inhibition of Fungal Growth; detection method Absorption (OD530); plate type 384well; NBS; CORNING #3640
Description: (§4) Antifungal activity against Candida albicans ATCC 90028 (CO-ADD:FG_001); MIC in YNB media using NBS plates, by OD630

Escherichia coli [5] = conditions: ASSAY_TEST Inhibition of Bacterial Growth; detection method Absorption (OD600); MEDIA CAMHB; plate type 384well; NBS; CORNING #3640; time 18 hr
Description: (§5) Antibacterial activity against Escherichia coli ATCC 25922 (CO-ADD:GN_001); MIC in CAMBH media using NBS plates, by OD(600)

Pseudomonas aeruginosa [6] = assay: Antibacterial activity against Pseudomonas aeruginosa PAO397 [PAO1 d(mexAB-oprM) d(mexCD-oprJ) d(mexEF-oprN) d(mexJKL) d(mexXY) d(opmH)] (CO-ADD:GN_211); MIC in CAMBH media using NBS plates, by OD(600); type: functional; conditions: ASSAY_TEST Inhibition of Bacterial Growth, detection method Absorption (OD600), MEDIA CAMHB, plate type 384well, CORNING #3640, time 18 hr
Staphylococcus aureus [7] = conditions: ASSAY_TEST Inhibition of Bacterial Growth; detection method Absorption (OD600); MEDIA CAMHB; plate type 384well; NBS; CORNING #3640; time 18 hr
Description: (§6) Antibacterial activity against Staphylococcus aureus MRSA ATCC 43300 (CO-ADD:GP_020); MIC in CAMBH media, using NBS plates, by OD(600)

Klebsiella pneumoniae [8] = assay: microbe, parasite or virus in culture; conditions: ATCC 700603, 18 h, ASSAY_TEST Inhibition of Bacterial Growth, detection method Absorption (OD600), MEDIA CAMHB, plate type 384well, NBS, CORNING #3640
Description: as §2

Escherichia coli [9] = assay: microbe, parasite or virus in culture; conditions: ATCC 25922, 18 h, ASSAY_TEST Inhibition of Bacterial Growth, detection method Absorption (OD600), MEDIA CAMHB, plate type 384well, NBS, CORNING #3640
Description: as §5

Staphylococcus aureus [10] = assay: microbe, parasite or virus in culture; conditions: ATCC 43300, 18 h, ASSAY_TEST Inhibition of Bacterial Growth, detection method Absorption (OD600), MEDIA CAMHB, plate type 384well, NBS, CORNING #3640
Description: as §6

Candida albicans [11] = assay: microbe, parasite or virus in culture; conditions: ATCC 90028, ASSAY_TEST Inhibition of Fungal Growth, detection method Absorption (OD530), plate type 384well, NBS, CORNING #3640
Description: as §4

Acinetobacter baumannii [12] = assay: microbe, parasite or virus in culture; conditions: ATCC 19606, 18 h, ASSAY_TEST Inhibition of Bacterial Growth, detection method Absorption (OD600), MEDIA CAMHB, plate type 384well, NBS, CORNING #3640
Description: as §1

Pseudomonas aeruginosa [13] = assay: microbe, parasite or virus in culture; conditions: ATCC 27853, 18 h, ASSAY_TEST Inhibition of Bacterial Growth, detection method Absorption (OD600), MEDIA CAMHB, plate type 384well, NBS, CORNING #3640
Description: as §3

[14] = ASSAY_TEST Inhibition of Cell Viability, detection method Resazurin, Fluorescence (ex560/em590), MEDIA DMEM with 10% FBS, plate type 384well, TC, CORNING #3712, time 18 hr, read-out: CC50
[15] = Homo sapiens, ATCC CRL1573, HEK293, ASSAY_TEST Inhibition of Cell Viability, detection method Resazurin, Fluorescence (ex560/em590), MEDIA DMEM with 10% FBS, plate type 384well, TC, CORNING #3712, time 18 hr, read-out: CC50

Description for Cryptococcus neoformans: Antifungal activity against Cryptococcus neoformans H99 ATCC 208821 (CO-ADD:FG_002); MIC in YNB media using NBS plates, by Resazurin OD(600-570)

| SMILES | MIC (Acinetobacter baumannii [1]) | MIC (Klebsiella pneumoniae [2]) | MIC (Cryptococcus neoformans) | CC50 (HEK293; [14]) | MIC (Pseudomonas aeruginosa [3]) | MIC (Candida albicans [4]) | MIC (Escherichia coli [5]) | MIC (Pseudomonas aeruginosa [6]) | MIC (Staphylococcus aureus [7]) | CC50 (HEK293; [15]) | CC50 (HEK293; Homo sapiens, ATCC CRL1573, HEK293, 18 h) | MIC (Klebsiella pneumoniae [8]) | MIC (Escherichia coli [9]) | MIC (Staphylococcus aureus [10]) | MIC (Candida albicans [11]) | MIC (Acinetobacter baumannii [12]) | MIC (Pseudomonas aeruginosa [13]) |
| --- | --- | --- | --- | --- | --- | --- | --- | --- | --- | --- | --- | --- | --- | --- | --- | --- | --- |
| C[C@H]1COc2c(N3CCN(C)CC3)c(F)cc3c(=O)c(C(=O)O)cn1c23.C[C@H]1COc2c(N3CCN(C)CC3)c(F)cc3c(=O)c(C(=O)O)cn1c23.O [LEVOFLOXACIN] | 10 µM | 5 µM | > 20 µM | > 20 µM | 2.5 µM | >20 µM | <=0.1562 uM | ≤ 0.156 µM | 2.5 µM |  |  |  |  |  |  |  |  |
| OC(Cn1cncn1)(Cn1cncn1)c1ccc(F)cc1F [FLUCONAZOLE] | >20 µM | >20 µM | > 20 µM |  | >20 µM | 2.5 µM (≈ 0.766 µg/mL) | >20 µM | > 20 µM | >20 µM | > 20 µM |  |  |  |  |  |  |  |
| CC(=O)N1CCN(c2ccc(OCC3COC(Cn4ccnc4)(c4ccc(Cl)cc4Cl)O3)cc2)CC1 (stereo not drawn) [KETOCONAZOLE] | >20 µM | >20 µM | 5 µM (≈ 2.66 µg/mL) |  | >20 µM | 0.3125 µM (≈ 0.166 µg/mL) | >20 µM | 20 µM (≈ 10.6 µg/mL) | >20 µM |  | > 20 µM |  |  |  |  |  |  |
| CC(=O)Oc1ccccc1C(=O)Nc1ncc([N+](=O)[O-])s1 [NITAZOXANIDE] | >20 µM | >20 µM | > 20 µM |  | >20 µM | >20 µM | >20 µM | > 20 µM | >20 µM | 8.59 µM |  |  |  |  |  |  |  |
| O=c1[nH]cnc2c1ncn2[C@H]1CC[C@@H](CO)O1 [DIDANOSINE] | >20 µM | >20 µM | > 20 µM |  | >20 µM | >20 µM | >20 µM | > 20 µM | >20 µM | > 20 µM |  |  |  |  |  |  |  |
| CC(=O)NC[C@H]1CN(c2ccc(N3CCSCC3)c(F)c2)C(=O)O1 [SUTEZOLID] | >20 µM | >20 µM | > 20 µM | > 20 µM | >20 µM | >20 µM | >20 µM | 20 µM (≈ 7.07 µg/mL) | 5 µM (≈ 1.77 µg/mL) |  |  |  |  |  |  |  |  |
| COc1cc(Cc2cnc(N)nc2N)cc(OC)c1OC [TRIMETHOPRIM] | >20 µM | 5 µM (≈ 1.45 µg/mL) | > 20 µM | > 20 µM | 20 µM (≈ 5.81 µg/mL) | >20 µM | 2.5 µM (≈ 0.726 µg/mL) | 5 µM (≈ 1.45 µg/mL) | 5 µM (≈ 1.45 µg/mL) |  |  |  |  |  |  |  |  |
| CO[C@@]1(NC(=O)Cc2cccs2)C(=O)N2C(C(=O)O)=C(COC(N)=O)CS[C@@H]21 [CEFOXITIN] | >20 µM | >20 µM | > 20 µM |  | >20 µM | >20 µM | 5 µM (≈ 2.14 µg/mL) | > 20 µM | >20 µM | > 20 µM |  |  |  |  |  |  |  |
| CCC(C)n1ncn(-c2ccc(N3CCN(c4ccc(OCC5COC(Cn6cncn6)(c6ccc(Cl)cc6Cl)O5)cc4)CC3)cc2)c1=O (stereo not drawn) [ITRACONAZOLE] | >20 µM | >20 µM | ≤ 0.156 µM |  | >20 µM | <=0.1562 uM | >20 µM | > 20 µM | >20 µM | > 20 µM |  |  |  |  |  |  |  |
| CC(C)/N=c1\cc2n(-c3ccc(Cl)cc3)c3ccccc3nc-2cc1Nc1ccc(Cl)cc1 [CLOFAZIMINE] | >20 µM | >20 µM | > 20 µM |  | >20 µM | >20 µM | >20 µM | > 20 µM | 20 µM (≈ 9.47 µg/mL) | > 20 µM |  |  |  |  |  |  |  |
| Nc1nc(=O)[nH]cc1F [FLUCYTOSINE] | >20 µM | >20 µM | 1.25 µM (≈ 0.161 µg/mL) |  | >20 µM | 1.25 µM (≈ 0.161 µg/mL) | >20 µM | > 20 µM | >20 µM | > 20 µM |  |  |  |  |  |  |  |
| CCC[C@@H]1C[C@@H](C(=O)N[C@@H]([C@H]2O[C@H](SC)[C@H](O)[C@@H](O)[C@H]2O)[C@H](C)Cl)N(C)C1 [CLINDAMYCIN HYDROCHLORIDE] |  |  | > 20 µM |  |  |  |  | 20 µM |  | > 20 µM |  | > 20 µM | > 20 µM | > 20 µM | > 20 µM | > 20 µM | > 20 µM |
| Cc1ccccc1NC(=O)Nc1cccc([N+](=O)[O-])c1 |  |  | > 20 µM |  |  |  |  | > 20 µM |  | > 20 µM |  | > 20 µM | > 20 µM | > 20 µM | > 20 µM | > 20 µM | > 20 µM |
| O=P(O)(O)C(CCCc1cccc(Oc2ccccc2)c1)S(=O)(=O)O (stereo not drawn) |  |  | > 20 µM |  |  |  |  | > 20 µM |  | > 20 µM |  | > 20 µM | > 20 µM | > 20 µM | > 20 µM | > 20 µM | > 20 µM |
| CC(C)=CCC/C(C)=C/CNCCNC1C2CC3CC(C2)CC1C3 (stereo not drawn) [SQ109] |  |  | > 20 µM |  |  |  |  | 20 µM (≈ 6.61 µg/mL) |  | 19.5 µM |  | > 20 µM | > 20 µM | > 20 µM | > 20 µM | > 20 µM | > 20 µM |
| Cc1onc(-c2ccccc2)c1-c1ccc(S(N)(=O)=O)cc1 [VALDECOXIB] |  |  | > 20 µM |  |  |  |  | > 20 µM |  | > 20 µM |  | > 20 µM | > 20 µM | > 20 µM | > 20 µM | > 20 µM | > 20 µM |
| Cc1cc(CCOc2c(C)cc(-c3nnn(C)n3)cc2C)on1 |  |  | > 20 µM |  |  |  |  | > 20 µM |  | > 20 µM |  | > 20 µM | > 20 µM | > 20 µM | > 20 µM | > 20 µM | > 20 µM |

Source: ChEMBL document CHEMBL4513161, “CO-ADD screening of MMV (CH) - Pandemic Response Box” (2021)
